According to ChEMBL document CHEMBL1201861, “Genomics of Drug Sensitity in Cancer screening data, Wellcome Trust Sanger Institute”:
pIC50: −log10 of the molar value.

Columns and labels:
OC-314 = assay: cells; format: functional, cell-based; conditions: Homo sapiens
Description: SANGER: Inhibition of human OC-314 cell growth in a cell viability assay.

YH-13 = assay: cells; format: functional, cell-based; conditions: Homo sapiens;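 note: cell viability readout of growth suppression in the human YH-13 cell line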
Description: SANGER: Inhibition of human YH-13 cell growth in a cell viability assay.

CHP-134 = assay: SANGER: Inhibition of human CHP-134 cell growth in a cell viability assay.; format: functional, cell-based
CFPAC-1 = assay: cells; format: functional, cell-based; conditions: Homo sapiens;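 note: cell viability readout used to gauge suppression of CFPAC-1 cell proliferation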
Description: SANGER: Inhibition of human CFPAC-1 cell growth in a cell viability assay.

RH-18 = assay: cells; format: functional, cell-based; conditions: Homo sapiens, Rh18;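 note: growth inhibition of human RH-18 cells, read out with a cell viability assay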
Description: SANGER: Inhibition of human RH-18 cell growth in a cell viability assay.

LU-135 = assay: cells; format: functional, cell-based; conditions: Homo sapiens
Description: SANGER: Inhibition of human LU-135 cell growth in a cell viability assay.

NCI-H460 = assay: cells; format: functional, cell-based, Homo sapiens; conditions: Homo sapiens, NCI-H460;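 note: cell viability assay scoring growth inhibition of human NCI-H460 cells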
Description: SANGER: Inhibition of human NCI-H460 cell growth in a cell viability assay.

HCT-15 = assay: cells; format: functional, cell-based, Homo sapiens; conditions: Homo sapiens, HCT-15;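 note: cell viability readout, IC50 reflecting suppression of HCT-15 cell growth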
Description: SANGER: Inhibition of human HCT-15 cell growth in a cell viability assay.

NCI-H838 = assay: cells; format: functional, cell-based; conditions: Homo sapiens;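 note: growth inhibition of human NCI-H838 cells, read out by a cell viability assay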
Description: SANGER: Inhibition of human NCI-H838 cell growth in a cell viability assay.

RT-4 = assay: SANGER: Inhibition of human RT4 cell growth in a cell viability assay.; format: functional, cell-based; conditions: Homo sapiens, RT-4
TE-15 = assay: cells; format: functional, cell-based; conditions: Homo sapiens;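 note: cell viability readout of growth inhibition in TE-15 cells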
Description: SANGER: Inhibition of human TE-15 cell growth in a cell viability assay.

MFE-296 = assay: SANGER: Inhibition of human MFE-296 cell growth in a cell viability assay.; format: functional, cell-based
NCI-H345 = assay: cells; format: functional, cell-based; conditions: Homo sapiens;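 note: growth inhibition of NCI-H345 cells measured with a cell viability assay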
Description: SANGER: Inhibition of human NCI-H345 cell growth in a cell viability assay.

SNU-475 = assay: cells; format: functional, cell-based; conditions: Homo sapiens
Description: SANGER: Inhibition of human SNU-475 cell growth in a cell viability assay.

Caov-3 cell line = assay: cells; format: functional, cell-based; conditions: Homo sapiens;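 note: cell growth inhibition read out by a viability assay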
Description: SANGER: Inhibition of human Caov-3 cell growth in a cell viability assay.

SNU-C1 = assay: cells; format: functional, cell-based; conditions: Homo sapiens;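 note: growth inhibition of SNU-C1 human cells, read out by a cell viability assay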
Description: SANGER: Inhibition of human SNU-C1 cell growth in a cell viability assay.

IPC-298 = assay: SANGER: Inhibition of human IPC-298 cell growth in a cell viability assay.; format: functional, cell-based
EVSA-T = assay: cells; format: functional, cell-based, Homo sapiens; conditions: Homo sapiens, EVSA-T;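 note: growth inhibition of EVSA-T cells, read out with a cell viability assay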
Description: SANGER: Inhibition of human EVSA-T cell growth in a cell viability assay.

NCI-H716 = assay: cells; format: functional, cell-based; conditions: Homo sapiens;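 note: growth inhibition of human NCI-H716 cells, measured by a cell viability assay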
Description: SANGER: Inhibition of human NCI-H716 cell growth in a cell viability assay.

L-540 = assay: cells; format: functional, cell-based; conditions: Homo sapiens;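 note: growth inhibition of the human L-540 cell line, read out with a viability assay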
Description: SANGER: Inhibition of human L-540 cell growth in a cell viability assay.

EFE-184 = assay: cells; format: functional, cell-based; conditions: Homo sapiens
Description: SANGER: Inhibition of human EFE-184 cell growth in a cell viability assay.

MRK-nu-1 = assay: cells; format: functional, cell-based; conditions: Homo sapiens;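 note: cell viability assay measuring growth suppression of human MRK-nu-1 cells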
Description: SANGER: Inhibition of human MRK-nu-1 cell growth in a cell viability assay.

PLC-PRF-5 = assay: cells; format: functional, cell-based; conditions: Homo sapiens;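 note: growth inhibition of human PLC-PRF-5 cells, read out with a viability assay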
Description: SANGER: Inhibition of human PLC-PRF-5 cell growth in a cell viability assay.

SIMA = assay: cells; format: functional, cell-based, Homo sapiens; conditions: Homo sapiens, SIMA;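 note: growth inhibition of SIMA cells, measured with a cell viability readout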
Description: SANGER: Inhibition of human SIMA cell growth in a cell viability assay.

MDA-MB-468 = assay: cells; format: functional, cell-based; conditions: Homo sapiens
Description: SANGER: Inhibition of human MDA-MB-468 cell growth in a cell viability assay.

RL95-2 = assay: cells; format: functional, cell-based; conditions: Homo sapiens;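 note: RL95-2 growth inhibition determined through a cell viability readout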
Description: SANGER: Inhibition of human RL95-2 cell growth in a cell viability assay.

ECC4 = assay: cells; format: functional, cell-based; conditions: Homo sapiens;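 note: growth inhibition of ECC4 cells, read out with a cell viability assay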
Description: SANGER: Inhibition of human ECC4 cell growth in a cell viability assay.

HCC1143 = assay: cells; format: functional, cell-based; conditions: Homo sapiens;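 note: growth inhibition of human HCC1143 cells, read out with a cell viability assay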
Description: SANGER: Inhibition of human HCC1143 cell growth in a cell viability assay.

YT = assay: cells; format: functional, cell-based; conditions: Homo sapiens
Description: SANGER: Inhibition of human YT cell growth in a cell viability assay.

OPM-2 = assay: cells; format: functional, cell-based; conditions: Homo sapiens;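 note: growth of OPM-2 cells measured with a viability assay, IC50 for suppression of proliferation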
Description: SANGER: Inhibition of human OPM-2 cell growth in a cell viability assay.

DV-90 = assay: cells; format: functional, cell-based; conditions: Homo sapiens;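 note: Read-out is a viability assay, with IC50 reflecting the drop in DV-90 cell growth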
Description: SANGER: Inhibition of human DV-90 cell growth in a cell viability assay.

CCF-STTG1 = assay: cells; format: functional, cell-based; conditions: Homo sapiens;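 note: growth inhibition of human CCF-STTG1 cells, determined with a cell viability read-out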
Description: SANGER: Inhibition of human CCF-STTG1 cell growth in a cell viability assay.

CA46 = assay: cells; format: functional, cell-based; conditions: Homo sapiens;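 note: growth inhibition of human CA46 cells, read out by a cell viability assay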
Description: SANGER: Inhibition of human CA46 cell growth in a cell viability assay.

UACC-812 = assay: cells; format: functional, cell-based; conditions: Homo sapiens
Description: SANGER: Inhibition of human UACC-812 cell growth in a cell viability assay.

NCI-H1618 = assay: cells; format: functional, cell-based; conditions: Homo sapiens;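 note: growth inhibition of human NCI-H1618 cells, measured by a cell viability assay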
Description: SANGER: Inhibition of human NCI-H1618 cell growth in a cell viability assay.

Calu-1 = assay: SANGER: Inhibition of human Calu-1 cell growth in a cell viability assay.; format: functional, cell-based
BC1 cell line = assay: SANGER: Inhibition of human BC-1 cell growth in a cell viability assay.; format: functional, cell-based
NCI-H1963 = assay: cells; format: functional, cell-based; conditions: Homo sapiens
Description: SANGER: Inhibition of human NCI-H1963 cell growth in a cell viability assay.

PF-382 = assay: cells; format: functional, cell-based; conditions: Homo sapiens
Description: SANGER: Inhibition of human PF-382 cell growth in a cell viability assay.

NB1 = assay: cells; format: functional, cell-based; conditions: Homo sapiens;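 note: reduction of NB1 cell proliferation, read out with a viability assay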
Description: SANGER: Inhibition of human NB1 cell growth in a cell viability assay.

CAL-148 = assay: cells; format: functional, cell-based; conditions: Homo sapiens
Description: SANGER: Inhibition of human CAL-148 cell growth in a cell viability assay.

IM-9 = assay: SANGER: Inhibition of human IM-9 cell growth in a cell viability assay.; format: functional, cell-based
SK-CO-1 = assay: cells; format: functional, cell-based; conditions: Homo sapiens;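 note: growth inhibition of SK-CO-1 cells, determined by a viability readout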
Description: SANGER: Inhibition of human SK-CO-1 cell growth in a cell viability assay.

NCI-H2196 = assay: cells; format: functional, cell-based; conditions: Homo sapiens;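 note: cell viability assay used as the readout of growth inhibition in NCI-H2196 cells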
Description: SANGER: Inhibition of human NCI-H2196 cell growth in a cell viability assay.

IST-SL2 = assay: cells; format: functional, cell-based; conditions: Homo sapiens;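 note: growth inhibition of human IST-SL2 cells, read out by a cell viability assay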
Description: SANGER: Inhibition of human IST-SL2 cell growth in a cell viability assay.

BL-41 = assay: cells; format: functional, cell-based; conditions: Homo sapiens;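 note: growth inhibition of human BL-41 cells, read out with a cell viability assay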
Description: SANGER: Inhibition of human BL-41 cell growth in a cell viability assay.

SNG-M = assay: cells; format: functional, cell-based; conditions: Homo sapiens
Description: SANGER: Inhibition of human SNG-M cell growth in a cell viability assay.

NCI-H322M = assay: cells; format: functional, cell-based; conditions: Homo sapiens;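 note: cell viability assay measuring inhibition of growth of human NCI-H322M cells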
Description: SANGER: Inhibition of human NCI-H322M cell growth in a cell viability assay.

EHEB = assay: cells; format: functional, cell-based; conditions: Homo sapiens;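 note: growth inhibition of human EHEB cells, read out with a cell viability assay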
Description: SANGER: Inhibition of human EHEB cell growth in a cell viability assay.

NCI-H2227 = assay: cells; format: functional, cell-based; conditions: Homo sapiens;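 note: growth inhibition of the human cell line, read out with a cell viability assay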
Description: SANGER: Inhibition of human NCI-H2227 cell growth in a cell viability assay.

CHP-126 = assay: cells; format: functional, cell-based; conditions: Homo sapiens
Description: SANGER: Inhibition of human CHP-126 cell growth in a cell viability assay.

Kasumi 1 = assay: cells; format: functional, cell-based; conditions: Homo sapiens;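 note: growth inhibition of human Kasumi-1 cells, read out by a cell viability assay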
Description: SANGER: Inhibition of human KASUMI-1 cell growth in a cell viability assay.

LB647-SCLC = assay: cells; format: functional, cell-based; conditions: Homo sapiens;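 note: cell growth inhibition, read out by a viability assay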
Description: SANGER: Inhibition of human LB647-SCLC cell growth in a cell viability assay.

NCI-H187 = assay: cells; format: functional, cell-based; conditions: Homo sapiens;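 note: growth inhibition of NCI-H187 cells, read out as cell viability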
Description: SANGER: Inhibition of human NCI-H187 cell growth in a cell viability assay.

TT = assay: cells; format: functional, cell-based; conditions: Homo sapiens
Description: SANGER: Inhibition of human TT cell growth in a cell viability assay.

IMR-5 = assay: cells; format: functional, cell-based; conditions: Homo sapiens;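 note: growth inhibition of human IMR-5 cells, read out with a cell viability assay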
Description: SANGER: Inhibition of human IMR-5 cell growth in a cell viability assay.

ECC12 = assay: cells; format: functional, cell-based; conditions: Homo sapiens
Description: SANGER: Inhibition of human ECC12 cell growth in a cell viability assay.

COLO 205 = assay: cells; format: functional, cell-based; conditions: Homo sapiens
Description: SANGER: Inhibition of human COLO-205 cell growth in a cell viability assay.

COc1ccc(-c2ccc3c(N4CCOC[C@@H]4C)nc(N4CCOC[C@@H]4C)nc3n2)cc1CO [AZD-8055]
pIC50 (OC-314): 5.89
pIC50 (YH-13): 6.26
pIC50 (CHP-134): 5.86
pIC50 (CFPAC-1): < 5.70
pIC50 (RH-18): < 5.70
pIC50 (LU-135): < 5.70
pIC50 (NCI-H460): 6.30

O=c1cc(-c2cccc3c2Sc2ccccc2S3)oc(N2CCOCC2)c1 [KU-55933]
pIC50 (OC-314): < 5.00
pIC50 (YH-13): < 5.00
pIC50 (CHP-134): < 5.00
pIC50 (CFPAC-1): < 5.00
pIC50 (HCT-15): < 5.00
pIC50 (RH-18): < 5.00
pIC50 (LU-135): < 5.00
pIC50 (NCI-H460): < 5.00

COc1ccc(C2=N[C@@H](c3ccc(Cl)cc3)[C@@H](c3ccc(Cl)cc3)N2C(=O)N2CCNC(=O)C2)c(OC(C)C)c1 [NUTLIN-3]
pIC50 (OC-314): < 5.10
pIC50 (YH-13): < 5.10
pIC50 (CHP-134): 5.53
pIC50 (CFPAC-1): < 5.10
pIC50 (RH-18): 5.37
pIC50 (LU-135): < 5.10
pIC50 (NCI-H460): 5.31

CN(c1ncccc1CNc1nc(Nc2ccc3c(c2)CC(=O)N3)ncc1C(F)(F)F)S(C)(=O)=O [PF-00562271]
pIC50 (NCI-H838): < 5.59
pIC50 (RT-4): < 5.59
pIC50 (TE-15): < 5.59
pIC50 (MFE-296): 5.61
pIC50 (NCI-H345): < 5.59
pIC50 (SNU-475): < 5.59
pIC50 (Caov-3 cell line): < 5.59
pIC50 (SNU-C1): < 5.59
pIC50 (IPC-298): < 5.59
pIC50 (EVSA-T): < 5.59
pIC50 (NCI-H716): < 5.59
pIC50 (L-540): < 5.59
pIC50 (EFE-184): < 5.59
pIC50 (MRK-nu-1): < 5.59
pIC50 (PLC-PRF-5): < 5.59
pIC50 (SIMA): < 5.59
pIC50 (MDA-MB-468): 5.72
pIC50 (HCT-15): < 5.59
pIC50 (RL95-2): < 5.59
pIC50 (ECC4): < 5.59
pIC50 (HCC1143): < 5.59
pIC50 (YT): < 5.59
pIC50 (OPM-2): < 5.59
pIC50 (DV-90): < 5.59
pIC50 (CCF-STTG1): < 5.59
pIC50 (CA46): < 5.59
pIC50 (UACC-812): < 5.59
pIC50 (NCI-H1618): < 5.59
pIC50 (Calu-1): < 5.59
pIC50 (BC1 cell line): 5.79
pIC50 (NCI-H1963): < 5.59
pIC50 (PF-382): < 5.59
pIC50 (NCI-H460): 5.69
pIC50 (NB1): < 5.59
pIC50 (CAL-148): < 5.59
pIC50 (IM-9): < 5.59
pIC50 (SK-CO-1): < 5.59
pIC50 (NCI-H2196): < 5.59
pIC50 (IST-SL2): < 5.59
pIC50 (BL-41): < 5.59
pIC50 (SNG-M): < 5.59
pIC50 (NCI-H322M): < 5.59
pIC50 (EHEB): < 5.59
pIC50 (NCI-H2227): < 5.59
pIC50 (CHP-126): < 5.59
pIC50 (Kasumi 1): 5.63
pIC50 (LB647-SCLC): < 5.59
pIC50 (NCI-H187): < 5.59
pIC50 (TT): < 5.59
pIC50 (IMR-5): < 5.59
pIC50 (ECC12): < 5.59
pIC50 (COLO 205): 6.31

C=CCNC1=C2C[C@@H](C)C[C@H](OC)[C@H](O)[C@@H](C)/C=C(\C)[C@H](OC(N)=O)[C@@H](OC)/C=C\C=C(/C)C(=O)NC(=CC1=O)C2=O [TANESPIMYCIN]
pIC50 (OC-314): 6.78
pIC50 (YH-13): 7.24
pIC50 (CHP-134): < 6.00
pIC50 (CFPAC-1): 6.43
pIC50 (HCT-15): < 6.00
pIC50 (RH-18): < 6.00
pIC50 (LU-135): < 6.00
pIC50 (NCI-H460): 7.70

CCC1=C[C@@H]2CN(C1)Cc1c([nH]c3ccccc13)[C@@](C(=O)OC)(c1cc3c(cc1OC)N(C)[C@H]1[C@@](O)(C(=O)OC)[C@H](OC(C)=O)[C@]4(CC)C=CCN5CC[C@]31[C@@H]54)C2 [VINORELBINE]
pIC50 (NCI-H838): 7.79
pIC50 (RT-4): < 7.19
pIC50 (TE-15): 8.51
pIC50 (MFE-296): 8.22
pIC50 (NCI-H345): 7.35
pIC50 (SNU-475): < 7.19
pIC50 (Caov-3 cell line): < 7.19
pIC50 (SNU-C1): < 7.19
pIC50 (IPC-298): 7.44
pIC50 (EVSA-T): < 7.19
pIC50 (NCI-H716): < 7.19
pIC50 (L-540): 7.52
pIC50 (EFE-184): < 7.19
pIC50 (MRK-nu-1): 8.35
pIC50 (PLC-PRF-5): < 7.19
pIC50 (SIMA): < 7.19
pIC50 (MDA-MB-468): 8.15
pIC50 (HCT-15): < 7.19
pIC50 (RL95-2): 8.15
pIC50 (ECC4): < 7.19
pIC50 (HCC1143): < 7.19
pIC50 (YT): < 7.19
pIC50 (OPM-2): 8.20
pIC50 (DV-90): 7.46
pIC50 (CCF-STTG1): 8.08
pIC50 (CA46): 7.65
pIC50 (UACC-812): < 7.19
pIC50 (NCI-H1618): < 7.19
pIC50 (Calu-1): < 7.19
pIC50 (BC1 cell line): 8.03
pIC50 (NCI-H1963): 7.52
pIC50 (PF-382): 7.93
pIC50 (NCI-H460): 8.16
pIC50 (NB1): 7.58
pIC50 (CAL-148): 7.81
pIC50 (IM-9): < 7.19
pIC50 (SK-CO-1): 8.07
pIC50 (NCI-H2196): < 7.19
pIC50 (IST-SL2): 7.77
pIC50 (BL-41): 8.28
pIC50 (SNG-M): 8.41
pIC50 (NCI-H322M): < 7.19
pIC50 (EHEB): < 7.19
pIC50 (NCI-H2227): < 7.19
pIC50 (CHP-126): < 7.19
pIC50 (Kasumi 1): 7.75
pIC50 (LB647-SCLC): 8.16
pIC50 (NCI-H187): 7.85
pIC50 (TT): < 7.19
pIC50 (IMR-5): 7.95
pIC50 (ECC12): 9.29
pIC50 (COLO 205): 8.86
